According to ChEMBL document CHEMBL5584248, “Synthesis and biological characterization of an orally bioavailable lactate dehydrogenase-A inhibitor against pancreatic cancer” (Eur J Med Chem, 2024):
Activity calls are given as the source filed them. The rule behind the calls is not given here.

Experiments:
[1] = molecular target: L-lactate dehydrogenase B chain (Homo sapiens, UniProt P07195); experiment: Inhibition of human LDH-B incubated for 10 mins in presence of […] by fluorescence based reader assay
L-lactate dehydrogenase B chain, sequence (P07195 whole entry): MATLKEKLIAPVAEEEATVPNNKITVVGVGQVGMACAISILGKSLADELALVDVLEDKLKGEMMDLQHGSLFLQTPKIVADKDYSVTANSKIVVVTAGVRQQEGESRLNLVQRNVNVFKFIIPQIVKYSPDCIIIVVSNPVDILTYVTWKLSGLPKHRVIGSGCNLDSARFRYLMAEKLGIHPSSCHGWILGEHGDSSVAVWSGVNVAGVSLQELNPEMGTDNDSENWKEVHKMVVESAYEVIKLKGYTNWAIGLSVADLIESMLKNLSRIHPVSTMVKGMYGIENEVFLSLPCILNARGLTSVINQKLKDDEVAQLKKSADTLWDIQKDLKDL

[2] = molecular target: L-lactate dehydrogenase A chain (Homo sapiens, UniProt P00338); experiment: Inhibition of human LDH-A incubated for 10 mins in presence of […] by fluorescence based reader assay
[3] = Half-life in CD1 mouse at 5 mg/kg, po; assay type: ADME, organism-based; conditions: in vivo
[4] = Half-life in CD1 mouse at 1 mg/kg, iv; assay type: ADME, organism-based; conditions: in vivo
[5] = Oral bioavailability in CD1 mouse at 5 mg/kg; assay type: ADME, organism-based; conditions: in vivo
[6] = Cmax in CD1 mouse at 5 mg/kg, po; assay type: ADME, organism-based; conditions: in vivo
[7] = Drug metabolism in mouse assessed as tmax of 4-((4-(1-methyl-1H-imidazole-2-carbonyl)phenyl)amino)-4-oxo-2-(4-(trifluoromethyl)phenyl)butanoic acid at 5 mg/kg, po; assay type: ADME, organism-based; conditions: in vivo
[8] = Drug metabolism in mouse assessed as tmax of 4-((4-(1-methyl-1H-imidazole-2-carbonyl)phenyl)amino)-4-oxo-2-(4-(trifluoromethyl)phenyl)butanoic acid at 1 mg/kg, iv; assay type: ADME, organism-based; conditions: in vivo
[9] = Volume of distribution in CD1 mouse at 1 mg/kg, iv; assay type: ADME, organism-based; conditions: in vivo
[10] = Cmax in CD1 mouse at 1 mg/kg, iv; assay type: ADME, organism-based; conditions: in vivo
[11] = Drug metabolism in mouse assessed as half-life of 4-((4-(1-methyl-1H-imidazole-2-carbonyl)phenyl)amino)-4-oxo-2-(4-(trifluoromethyl)phenyl)butanoic acid at 5 mg/kg, po; assay type: ADME, organism-based; conditions: in vivo
MIA PaCa-2 [12] = experiment: Antiproliferative activity against human MIA PaCa-2 cells incubated for 48 hrs by Hoechst 33342 and SYTOX green staining based confocal imaging analysis; assay type: functional, cell-based; conditions: MIA PaCa-2, 48 h
[13] = Drug metabolism in mouse assessed as Cmax of 4-((4-(1-methyl-1H-imidazole-2-carbonyl)phenyl)amino)-4-oxo-2-(4-(trifluoromethyl)phenyl)butanoic acid at 1 mg/kg, iv; assay type: ADME, organism-based; conditions: in vivo
[14] = AUC(0 to infinity) in CD1 mouse at 5 mg/kg, po; assay type: ADME, organism-based; conditions: in vivo
[15] = Drug metabolism in mouse assessed as Cmax of 4-((4-(1-methyl-1H-imidazole-2-carbonyl)phenyl)amino)-4-oxo-2-(4-(trifluoromethyl)phenyl)butanoic acid at 5 mg/kg, po; assay type: ADME, organism-based; conditions: in vivo
[16] = Clearance in CD1 mouse at 1 mg/kg, iv; assay type: ADME, organism-based; conditions: in vivo
PANC-1 = experiment: Antiproliferative activity against human PANC-1 cells incubated for 48 hrs by Hoechst 33342 and SYTOX green staining based confocal imaging analysis; assay type: functional, cell-based; conditions: PANC-1, 48 h
[17] = Tmax in CD1 mouse at 5 mg/kg, po; assay type: ADME, organism-based; conditions: in vivo
[18] = Drug metabolism in mouse assessed as AUC(0 to infinity) of 4-((4-(1-methyl-1H-imidazole-2-carbonyl)phenyl)amino)-4-oxo-2-(4-(trifluoromethyl)phenyl)butanoic acid at 1 mg/kg, iv; assay type: ADME, organism-based; conditions: in vivo
[19] = Drug metabolism in mouse assessed as metabolite 4-((4-(1-methyl-1H-imidazole-2-carbonyl)phenyl)amino)-4-oxo-2-(4-(trifluoromethyl)phenyl)butanoic acid cumulative half-life by LC-MS/MS analysis; assay type: ADME
[20] = Drug metabolism in mouse assessed as AUC(0 to infinity) of 4-((4-(1-methyl-1H-imidazole-2-carbonyl)phenyl)amino)-4-oxo-2-(4-(trifluoromethyl)phenyl)butanoic acid at 5 mg/kg, po; assay type: ADME, organism-based; conditions: in vivo
[21] = Drug metabolism in mouse assessed as half-life of 4-((4-(1-methyl-1H-imidazole-2-carbonyl)phenyl)amino)-4-oxo-2-(4-(trifluoromethyl)phenyl)butanoic acid at 1 mg/kg, iv; assay type: ADME, organism-based; conditions: in vivo
[22] = AUC(0 to infinity) in CD1 mouse at 1 mg/kg, iv; assay type: ADME, organism-based; conditions: in vivo
[23] = Cytotoxicity against HPNEs incubated for 48 hrs by Hoechst 33342 and SYTOX green staining based confocal imaging analysis; assay type: toxicity, cell-based; conditions: human, HPNE cells
[24] = Antiproliferative activity against mouse FC-1199 cells incubated for 48 hrs by Hoechst 33342 and SYTOX green staining based confocal imaging analysis; assay type: functional, cell-based; conditions: FC-1199, 48 h
[25] = Metabolic stability in human liver microsomes assessed as compound remaining after 10 mins; assay type: ADME, Microsome; conditions: read-out: Stability
[26] = Metabolic stability in human liver microsomes assessed as intrinsic clearance per mg protein; assay type: ADME, Microsome
MIA PaCa-2 [27] = experiment: Reduction in succinic acid level in human MIA PaCa-2 cells at 15 uM incubated for 6 hrs by UPLC-MS analysis; assay type: functional, cell-based
[28] = tested on: Pancreatic cancer organoid; experiment: Antiproliferative activity against human Pancreatic cancer organoid after 72 hrs by MTS assay; assay type: functional, tissue-based
[29] = Metabolic stability in mouse liver microsomes assessed as compound remaining after 60 mins; assay type: ADME, Microsome; conditions: read-out: Stability
MIA PaCa-2 [30] = experiment: Reduction in total ATP production in human MIA PaCa-2 cells at 10 uM incubated for 48 hrs by Celltiter-glo assay; assay type: functional, cell-based
MIA PaCa-2 [31] = experiment: Reduction in glycolytic ATP production rate in human MIA PaCa-2 cells at 15 to 30 uM incubated for 24 hrs by Seahorse assay; assay type: functional, cell-based; conditions: dose 15-30 µM
MIA PaCa-2 [32] = experiment: Inhibition of compensatory glycolysis in human MIA PaCa-2 cells at 10 to 30 uM; assay type: functional, cell-based; conditions: dose 10-30 µM
[33] = Metabolic stability in mouse liver microsomes assessed as compound remaining after 10 mins; assay type: ADME, Microsome; conditions: read-out: Stability
MIA PaCa-2 [34] = experiment: Reduction in intracellular lactate production in human MIA PaCa-2 cells at 15 uM incubated for 6 to 24 hrs by colorimetric assay; assay type: functional, cell-based; conditions: time 6-24 hrs
[35] = Metabolic stability in mouse liver microsomes assessed as intrinsic clearance per mg protein; assay type: ADME, Microsome
[36] = Metabolic stability in human liver microsomes assessed as compound remaining after 60 mins; assay type: ADME, Microsome; conditions: read-out: Stability
[37] = Lipophilicity, logP of compound; assay type: physicochemical; conditions: octanol/water
MIA PaCa-2 [38] = experiment: Reduction in pyruvate level in human MIA PaCa-2 cells at 15 uM incubated for 6 to 24 hrs by UPLC-MS analysis; assay type: functional, cell-based; conditions: time 6-24 hrs
MIA PaCa-2 [39] = experiment: Reduction in lactate production in human MIA PaCa-2 cells incubated for 6 hrs by colorimetric assay; assay type: functional, cell-based; conditions: dose 15-30 µM
[40] = Metabolic stability in mouse liver microsomes assessed as half-life; assay type: ADME, Microsome
[41] = Thermodynamic solubility in PBS at pH 7.4; assay type: physicochemical; conditions: buffer
MIA PaCa-2 [42] = experiment: Reduction in isocitric acid level in human MIA PaCa-2 cells at 15 uM incubated for 24 hrs by UPLC-MS analysis; assay type: functional, cell-based
[43] = Metabolic stability in human liver microsomes assessed as compound remaining after 20 mins; assay type: ADME, Microsome; conditions: read-out: Stability
MIA PaCa-2 [44] = experiment: Inhibition of basal glycolysis in human MIA PaCa-2 cells at 10 to 30 uM; assay type: functional, cell-based; conditions: dose 10-30 µM
[45] = Metabolic stability in mouse liver microsomes assessed as compound remaining after 20 mins; assay type: ADME, Microsome; conditions: read-out: Stability
MIA PaCa-2 [46] = experiment: Reduction in total ATP production rate in human MIA PaCa-2 cells at 15 to 30 uM incubated for 24 hrs by Seahorse assay; assay type: functional, cell-based; conditions: dose 15-30 µM
[47] = Metabolic stability in human liver microsomes assessed as half-life; assay type: ADME, Microsome
[48] = Metabolic stability in mouse liver microsomes assessed as compound remaining after 30 mins; assay type: ADME, Microsome; conditions: read-out: Stability
[49] = Metabolic stability in human liver microsomes assessed as compound remaining after 30 mins; assay type: ADME, Microsome; conditions: read-out: Stability
MIA PaCa-2 [50] = experiment: Reduction in citric acid level in human MIA PaCa-2 cells at 15 uM incubated for 24 hrs by UPLC-MS analysis; assay type: functional, cell-based
MIA PaCa-2 [51] = experiment: Reduction in total ATP production in human MIA PaCa-2 cells at 15 to 30 uM incubated for 48 hrs by Celltiter-glo assay; assay type: functional, cell-based; conditions: dose 15-30 µM
MIA PaCa-2 [52] = experiment: Synergistic antiproliferative activity against human MIA PaCa-2 cells at 20 uM incubated for 48 hrs in presence of phenformin by fluorescence based confocal imaging analysis; assay type: functional, cell-based

O=C(CC(C(=O)O)c1ccc(C(F)(F)F)cc1)Nc1ccc(N2CCOCC2)c(Cl)c1 (stereo not given)
IC50 [1]: > 100 µM
IC50 [2]: > 100 µM

O=C(CC(C(=O)O)c1ccc(C(F)(F)F)cc1)Nc1ccc(-c2cccs2)cc1 (stereo not given)
IC50 [1]: > 100 µM
IC50 [2]: > 100 µM

COC(=O)C(CC(=O)Nc1ccc(C(=O)c2nccn2C)cc1)c1ccc(C(F)(F)F)cc1 (stereo not given)
half-life [3]: 1.63 h
half-life [4]: 1.19 h
F [5]: 73%
Cmax [6]: 0.48 µM
Tmax [7]: 0.5 h
Tmax [8]: 0.5 h
Vd [9]: 10 L/kg
Cmax [10]: 1.02 µM
t1/2 [11]: 2.92 h
IC50 (MIA PaCa-2 [12]): 25.6 µM
Cmax [13]: 1.01 µM
AUC(0-inf) [14]: 0.551 µM·h
Cmax [15]: 9.76 µM
clearance ([16]; CD1, mouse): 6.6 L/h/kg
IC50 (PANC-1): 23.9 µM
Tmax [17]: 0.25 h
AUC [18]: 4.04 µM·h
t1/2 [19]: 4.5 h
AUC [20]: 25.96 µM·h
t1/2 [21]: 2.18 h
AUC(0-inf) [22]: 0.328 µM·h
IC50 at 48 h [23]: 49.5 µM
IC50 [24]: 12.1 µM

COC(=O)C(CC(=O)Nc1ccc(C(=O)c2nccn2C)cc1)c1ccc(F)cc1 (stereo not given)
IC50 [2]: 37.8 µM

COC(=O)C(CC(=O)Nc1ccc(C(=O)c2nccn2C)cc1)c1ccccc1 (stereo not given)
IC50 [2]: 2.49 µM

COc1ccc(C(CC(=O)Nc2ccc(C(=O)c3nccn3C)cc2)C(=O)O)cc1 (stereo not given)
IC50 [2]: 54.5 µM

Cn1ccnc1C(=O)c1ccc(NC(=O)CC(C(=O)O)c2ccc(C(F)(F)F)cc2)cc1 (stereo not given)
half-life [3]: 2.4 h
half-life [4]: 2.9 h
remaining at 10 min [25]: 95.5%
CLint [26]: < 23 µL/min/mg
Activity (MIA PaCa-2 [27]): Active
IC50 [28]: 32.3 µM
remaining at 1 h [29]: 88.4%
Activity (MIA PaCa-2 [30]): inactive
Activity (MIA PaCa-2 [31]): Active
F [5]: 33%
Cmax [6]: 10.4 µM
inhibition (MIA PaCa-2 [32]): Active
remaining at 10 min [33]: 98.6%
Activity (MIA PaCa-2 [34]): Active
CLint [35]: < 23 µL/min/mg
Vd [9]: 0.9 L/kg
remaining at 1 h [36]: 75.6%
Cmax [10]: 21.2 µM
logP [37]: 2.47
IC50 (MIA PaCa-2 [12]): 14.1 µM
Activity (MIA PaCa-2 [38]): Active
AUC(0-inf) [14]: 36.4 µM·h
clearance ([16]; mouse, iv, 1 mg/kg): 6.6 L/h/kg
Activity (MIA PaCa-2 [39]): Dose-Dependent Effect
t1/2 [40]: > 1 h
IC50 (PANC-1): 43.3 µM
Tmax [17]: 0.5 h
Therm_solubility [41]: 7.685 mg/mL
Activity (MIA PaCa-2 [42]): Active
remaining at 20 min [43]: 94.8%
inhibition (MIA PaCa-2 [44]): Active
remaining at 20 min [45]: 96%
Activity (MIA PaCa-2 [46]): Active
t1/2 [47]: > 1 h
remaining at 0.5 h [48]: 98%
remaining at 0.5 h [49]: 90.5%
Activity (MIA PaCa-2 [50]): Active
Activity (MIA PaCa-2 [51]): Active
Activity (MIA PaCa-2 [52]): Active
AUC(0-inf) [22]: 10 µM·h
IC50 at 48 h [23]: > 50 µM
IC50 [24]: 20.8 µM

Cn1ccnc1C(=O)c1ccc(NC(=O)CC(C(=O)O)c2csc(-c3ccccc3)n2)cc1 (stereo not given)
IC50 [2]: 29.9 µM

COC(=O)C(CC(=O)Nc1ccc(Cl)nn1)c1ccc(C(F)(F)F)cc1 (stereo not given)
IC50 [1]: > 100 µM
IC50 [2]: > 100 µM
